Results published in patent publication US12185743B2, “Processes for transglucosylation of steviol glycosides” (Beijing Gingko-Group Biological Technology Co., Ltd., priority 2019, dated 2025).

Test: Dissolution of RebD and RebM
Assay type: physicochemical
Settings: without maltooligosaccharides

dissolution	Compound
do not dissolve completely	C=C1C[C@@]23CC[C@H]4[C@@](C)(CCC[C@@]4(C)C(=O)O[C@@H]4O[C@H](CO)[C@@H](O)[C@H](O)[C@H]4O[C@@H]4O[C@H](CO)[C@@H](O)[C@H](O)[C@H]4O)[C@@H]2CC[C@]1(O[C@@H]1O[C@H](CO)[C@@H](O)[C@H](O[C@@H]2O[C@H](CO)[C@@H](O)[C@H](O)[C@H]2O)[C@H]1O[C@@H]1O[C@H](CO)[C@@H](O)[C@H](O)[C@H]1O)C3 [RebD, Rebaudioside D]
do not dissolve completely	C=C1C[C@@]23CC[C@H]4[C@@](C)(CCC[C@@]4(C)C(=O)O[C@@H]4O[C@H](CO)[C@@H](O)[C@H](O[C@@H]5O[C@H](CO)[C@@H](O)[C@H](O)[C@H]5O)[C@H]4O[C@@H]4O[C@H](CO)[C@@H](O)[C@H](O)[C@H]4O)[C@@H]2CC[C@]1(O[C@@H]1O[C@H](CO)[C@@H](O)[C@H](O[C@@H]2O[C@H](CO)[C@@H](O)[C@H](O)[C@H]2O)[C@H]1O[C@@H]1O[C@H](CO)[C@@H](O)[C@H](O)[C@H]1O)C3 [RebM, Rebaudioside M]
